Data reported in US12624173B2, “Biodegradable polymeric compositions, methods of preparation and uses thereof” (B.G. NEGEV TECHNOLOGIES AND APPLICATIONS LTD., AT …, priority 2019, dated 2026).
Read-outs that look alike come from different tables or passages of the source. Blank lines part the entries; values can stand above or below the compound they belong to.

How the values were obtained:
[1] = Cannabidiol distribution in brain and plasma 1 h after IN and IV administration; format: in vivo; conditions: rat
Experimental: The administered intranasal dose used in each animal was 220 μg CBD/kg body weight. The applied volume was approximately 15 μL/nostril. For the intravenous dose, a solution of CBD for injection was prepared by dissolving CBD in a small portion of ethanol, then mixed with a sterile saline solution (pH7.4) containing 1.5% Tween 80 and 0.1% ascorbic acid. The final concentration of ethanol was 5%. […] After 60 minutes from administration, the animals were euthanized by CO2 aspiration. […] The brain was then carefully excised, washed with saline, frozen at −80° C. and lyophilized.
The quantification of CBD was carried out at 220 nm.

[2] = CBD in oil, humans; cited from earlier work
[3] = rat, in vivo, iv
Experimental: (§1) For intravenous administration, aqueous solution of GR hydrochloride was prepared by dissolving the drug in a sterile saline solution. Approximately 0.3 ml of the solution were injected into the tail vein of a sedated animal (GR HCl dose=36 μg/kg body weight). The animals were sedated with isoflurane vapor just before administration. Sixty minutes after the administration, the animals were euthanized by CO2 aspiration. Then, blood sample was taken by cardiopuncture into heparinized tubes. Blood in heparinized tubes was centrifuged at 10,000-g for 10 min and the separated plasma was transferred into vials and kept at −20° C. until analyzed by HPLC. The brain was then carefully excised, washed with saline and frozen at −80° C.
(§2) Quantification of GR in plasma was performed by mixing 1 ml of plasma sample with 2 ml of methanol, followed by vortex stirring and centrifugation at 10,000-g for 10 min. The brain was homogenized with 2 ml of methanol/0.5 N HCl solution (1:1) followed by centrifugation at 10,000-g for 10 min. The supernatant solutions of both plasma and brain extracts were analyzed immediately by HPLC. Aliquots of 20 μl from each sample were injected into a HPLC system, equipped with a prepacked CN column. The quantification of GR was carried out at 301 nm. The samples were chromatographed using an isocratic mobile phase consisting of acetonitrile-acetate buffer solution pH5 (45:55) at a flow rate of 1 ml/min.

[4] = after IV curcumin in rats; cited from earlier work
[5] = cited from earlier work
[6] = Granisetron distribution in brain and plasma 1 h after IN and IV administration; conditions: rat
Experimental: as §1, §2

SMILES: C=C(C)[C@@H]1CCC(C)=C[C@H]1c1c(O)cc(CCCCC)cc1O [CBD, Cannabidiol]
- concentration at 1 h ([1]; plasma, IV injection of CBD solution, dose 220 μg/Kg, 1 hour after administration, read-out: Plasma level (cannabidiol)): 71.2 ng/mL
- CBD brain concentration ([1]; 1 h after iv administration of the same dose (220 μg/Kg)): no detectable concentration
- Brain Level (cannabidiol) ([1]; IV injection of CBD solution, dose 220 μg/Kg, 1 hour after administration): Undetectable
- oral bioavailability [2]: about 6%

- portion of the dose that reached the brain [3]: ca. 0.64%
SMILES: CN1C2CCCC1CC(NC(=O)c1nn(C)c3ccccc13)C2.Cl (stereo not shown) [GR-HCl]

SMILES: COc1cc(/C=C/C(=O)CC(=O)/C=C/c2ccc(O)c(OC)c2)ccc1O [curcumin, diferuloyl methane]
- t1/2 [4]: 0.47 h

- Plasma level (granisetron) ([6]; IV injection of GR hydrochloride in saline (GR HCl 36 μg/kg), 1 hour after administration): Undetectable
- concentration at 1 h ([6]; brain, iv, 36 μg/kg): 59.7 ng/g
SMILES: CN1C2CCCC1CC(NC(=O)c1nn(C)c3ccccc13)C2 (stereo not shown) [granisetron, Granisetron]
- average Cmax ([5]; 1 mg oral dose): 3.63 ng/mL
- Vd (volume of distribution) ([5]; in vivo): 3.94 L/kg
- clearance (CL) ([5]; in vivo): 6.83 mL/min/kg
- protein binding ([5]; in vivo): 65%
- t1/2 ([5]; in vivo): 6.23 h
